Patent publication US20040040097A1, “Coloring composition for keratin fibres comprising a system limiting the transcutaneous passage of an oxidation dye” (L'OREAL, priority 2002, published 2004)

Tested on: rebuilt skin (for example Epiderm, Episkin or Skinethic)
Test: Penetration rate of 5,6-dihydroxyindole through rebuilt skin in static diffusion cells, VIS spectrophotometry of oxidation products
Assay type: in vitro ADME
Conditions: 5 mM final concentration, 16 hour coating at an infinite dose
Method: The 5,6-dihydroxyindole mixture with the system limiting the transcutaneous passage has been prepared fresh by adding an system equivalent volume (=1 mM MnCl2 in 1 M NaHCO3; pH=10) to an aqueous solution of 10 mM 5,6-dihydroxyindole. Then, it has been coated on rebuilt skin (for example Epiderm® from Mattek, Inc., Episkin® from Episkin SNC or Skinethic® from Skinethic Laboratories) placed in diffusion cells in a static diffusion mode at a dose of 250 mg·cm^2 for 16 hours. The analysis of the penetration rates of 5,6-dihydroxyindole through the skin has been conducted through VIS spectrophotometry through the oxidation products thereof. The 5,6-dihydroxyindole range has been prepared as follows. A plurality of dilutions from 0 to 0.5 mM 5,6-dihydroxindole in receiving liquid has been left for 16 hours at 32° C. for forming oxidation products in the form of a pigment. Such pigments absorb visible light (VIS) (“scattering” effect) depending on their concentration, which is directly related to the initial 5,6-dihydroxyindole concentration. Thus, the 5,6-dihydroxyindol range has been obtained through VIS absorption of such pigments formed after 5,6-dihydroxyindole oxydation. A 1:1 mixture between 10 mM 5,6-dihydroxyindole and distilled water has been used as a control. […]

penetration rate of the 5,6-dihydroxyindole (with no system (control mixture, 1:1 with distilled water)): approximately 3 % of the dose coated
penetration rate of the 5,6-dihydroxyindole (with the system (1 mM MnCl2 in 1 M NaHCO3, pH 10, equivalent volume)): lower than 0.5%
Compound: Oc1cc2cc[nH]c2cc1O [5,6-dihydroxyindole]
